Like-named read-outs stand apart in the source and are kept apart here. Each block holds one compound with its values, some of them ahead of it.
Assays:
HCV [1] = details: phase 2 study, 1500 mg BID for 14 days; cited from earlier work
HCV [2] = details: chimpanzee, 7 days, cited from earlier work
[3] = biological target: T1, Hepatitis C virus NS5B polymerase (Hepatitis C virus genotype 1b, UniProt Q9WMX2); details: compound tested as its triphosphate; read-out: NS5b IC50 of NTP; cited from earlier work
T1 construct: Hepatitis C virus NS5B polymerase is an RNA-dependent RNA polymerase (RdRp)
T1 sequence (Q9WMX2 2420-3010): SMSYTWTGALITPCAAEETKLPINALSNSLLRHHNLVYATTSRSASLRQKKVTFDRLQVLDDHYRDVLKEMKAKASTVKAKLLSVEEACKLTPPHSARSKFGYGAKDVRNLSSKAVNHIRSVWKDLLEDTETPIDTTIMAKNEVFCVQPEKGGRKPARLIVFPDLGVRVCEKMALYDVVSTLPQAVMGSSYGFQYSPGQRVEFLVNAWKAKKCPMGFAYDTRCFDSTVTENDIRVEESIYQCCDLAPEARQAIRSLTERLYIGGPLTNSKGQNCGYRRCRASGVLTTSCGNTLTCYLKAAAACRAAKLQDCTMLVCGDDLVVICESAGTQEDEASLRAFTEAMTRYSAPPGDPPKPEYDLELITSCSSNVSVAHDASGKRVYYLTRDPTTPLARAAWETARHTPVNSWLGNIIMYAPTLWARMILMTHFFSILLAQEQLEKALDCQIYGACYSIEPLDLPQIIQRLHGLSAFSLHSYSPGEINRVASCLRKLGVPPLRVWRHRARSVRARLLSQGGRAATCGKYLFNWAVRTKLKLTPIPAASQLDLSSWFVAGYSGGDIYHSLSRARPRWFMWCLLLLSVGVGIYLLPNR

Replicon = details: cited from earlier work
[4] = rat, in vivo, po, 50 mg/kg
[5] = rat, in vivo, po, 50 mg/kg; cited from earlier work

Structure (SMILES): CC(C)C(=O)OC[C@@]1(N=[N+]=[N-])O[C@@H](n2ccc(N)nc2=O)[C@H](OC(=O)C(C)C)[C@@H]1OC(=O)C(C)C [Compound 81626]
mean reduction in serum viral titre (HCV [1]): 1.2 log10

Structure (SMILES): C[C@@]1(O)[C@H](O)[C@@H](CO)O[C@H]1n1ccc2c(N)ncnc21 [MK-0608]
reduction in viral titre (HCV [2]; intravenous 2 mg/kg/day): > 5 log10

Structure (SMILES): CC(C)[C@H](N)C(=O)O[C@@H]1[C@@H](CO)O[C@@H](n2ccc(N)nc2=O)[C@]1(C)O [NM283]
reduction in viral titre (HCV [2]; 16.6 mg/kg/day): 1.15 log10

Structure (SMILES): C[C@@]1(F)[C@H](O)[C@@H](CO)O[C@H]1n1ccc(N)nc1=O [PSI-6130, β-D-2′-deoxy-2′-fluoro-2′-C-methylcytidine]
IC50 [3]: 130 nM | EC50 (Replicon): 600 nM | activity in the replicon assay (Replicon): potent

Structure (SMILES): COC(=O)[C@H](C)NP(=O)(OC[C@H]1O[C@@H](n2ccc(=O)[nH]c2=O)[C@](C)(F)[C@@H]1O)Oc1ccccc1 (stereo partly drawn) [PSI-7672]
EC50 (Replicon): 1600 nM

liver triphosphate level converted to molar units [4]: 5.1 nmol/g
Structure (SMILES): CC(C)OC(=O)[C@H](C)NP(=O)(OC[C@H]1O[C@@H](n2ccc(=O)[nH]c2=O)[C@](C)(F)[C@@H]1O)Oc1ccccc1 (stereo partly drawn) [PSI-7851]
liver triphosphate levels [5]: 2550 ng/g

Structure (SMILES): C[C@@]1(F)[C@H](O)[C@@H](CO)O[C@H]1n1ccc(=O)[nH]c1=O [RO2433, 2′-deoxy-2′-fluoro-2′-C-methyl-uridine]
IC50 [3]: 520 nM | EC50 (Replicon): > 100000 nM | activity in the replicon assay (Replicon): inactive

From patent US20100305060A1, “Nucleoside Prodrugs and Uses Thereof” (Ligand Pharmaceuticals Incorporated, priority 2007, published 2010)
